Article PMC10080691, “Enzyme-Responsive Double-Locked Photodynamic Molecular Beacon for Targeted Photodynamic Anticancer Therapy” (Journal of the American Chemical Society, 2023)

Test system: HeLa cells
Experiment: Intracellular ROS generation (H2DCFDA)
Format: cell-based, human
Settings: no inhibitor pretreatment, 2 μM 1 h + 6 h, light λ > 610 nm, 23 mW cm-2, 14 J cm-2
Experimental: The enzyme-responsive intracellular ROS generation of 1 was then examined in A549 and HeLa cells using 2′,7′-dichlorodihydrofluorescein diacetate (H2DCFDA) as the ROS fluorescent probe. Once H2DCFDA is internalized, it will be deacetylated by the intracellular esterase, followed by oxidation by the intracellular ROS, leading to the formation of the highly fluorescent 2′,7′-dichlorofluorescein (DCF).[79] The cells were first pretreated with SB-3CT (10 μM) and/or CA-074 Me (25 μM) or simply the neat medium for 2 h, followed by incubation with 1 (2 μM) for a further 1 h. As a negative control, the cells were simply incubated with 14 (2 μM) for 1 h. After being rinsed with PBS, the cells were incubated in the medium for a further 6 h. Finally, the cells were incubated with H2DCFDA (10 μM) for 30 min, followed by dark or light (λ > 610 nm, 23 mW cm^–2, 14 J cm^–2) treatment. […] It can be seen that for the MMP-2-positive A549 cells, the fluorescence due to DCF was in the following order: 1 without pretreatment of the cells with the two inhibitors > 1 with pretreatment of the cells with either one of the two inhibitors > 1 with pretreatment of the cells with both inhibitors ≈ 14. […] This trend, which reflects the extent of recovery of ROS generation, was in accord with that of the fluorescence recovery inside the cells (Figure 5c,d). For the MMP-2-negative HeLa cells, the intracellular fluorescence remained very weak even for 1 without pretreatment of the cells with the two inhibitors because of the intrinsically low MMP levels in the cells. […]
or ER-Tracker Green (Thermo Fisher Scientific Inc., E34251) (1 μM for 15 min) in a serum-free medium at 37 °C. […] All the trackers were excited at 488 nm and their fluorescence was monitored at 500−570 nm, while the DSBDP moiety was excited at 638 nm and its fluorescence was monitored at 650−750nm. The images were digitized and analyzed using a Leica Application Suite X software. […]
at 500−550 nm. The images were digitized and analyzed using a Leica Application Suite X […]

CCN(CC)c1ccc2nc3ccc(/N=N/c4ccc(N(C)CCCNC(=O)OC[C@@H]5[C@@H]6CCc7nnn(CC(=O)NCCCC[C@@H]8NC(=O)CNC(=O)[C@H](CCCCN)NC(=O)[C@H](CCCNC(=N)N)NC(=O)[C@H](C(C)C)NC(=O)CNC(=O)[C@H](CC(C)C)NC(=O)[C@@H]9CCCN9C(=O)[C@H](CCCCN)NC(=O)[C@@H](N)CSCc9cc(COc%10ccc(C%11=C%12C(C)=C(I)C(/C=C/c%13ccc(OCCOCCOCCOC)cc%13)=[N+]%12[B-](F)(F)n%12c(/C=C/c%13ccc(OCCOCCOCCOC)cc%13)c(I)c(C)c%12%11)cc%10)cc(c9)CSC[C@@H](C(N)=O)NC(=O)[C@H](CCCCN)NC(=O)[C@H](CCCCN)NC(=O)CNC(=O)[C@H](CC(C)C)NC(=O)[C@H](Cc9ccccc9)NC(=O)CNC(=O)[C@H](CCCCN)NC(=O)CNC8=O)c7CC[C@@H]65)cc4)cc3[n+](-c3ccccc3)c2c1 [compound 1]
intracellular ROS generation (DCF fluorescence): very weak
